Experimental data reported in patent publication US20120016010A1, “RNA Interference Mediated Inhibition of BTB and CNC Homology 1, Basic Leucine Zipper Transcription Factor 1 (BACH1) Gene Expression Using Short Interfering Nucleic Acid (siNA)” (Merck Sharp & Dohme Corp, priority 2009, published 2012).

Columns and labels:
TLR7 = biological target: T1, TLR7 (Homo sapiens, UniProt Q9NYK1); format: cell-based
T1 construct: expressed in transfected cells
T1 sequence (Q9NYK1 27-1049): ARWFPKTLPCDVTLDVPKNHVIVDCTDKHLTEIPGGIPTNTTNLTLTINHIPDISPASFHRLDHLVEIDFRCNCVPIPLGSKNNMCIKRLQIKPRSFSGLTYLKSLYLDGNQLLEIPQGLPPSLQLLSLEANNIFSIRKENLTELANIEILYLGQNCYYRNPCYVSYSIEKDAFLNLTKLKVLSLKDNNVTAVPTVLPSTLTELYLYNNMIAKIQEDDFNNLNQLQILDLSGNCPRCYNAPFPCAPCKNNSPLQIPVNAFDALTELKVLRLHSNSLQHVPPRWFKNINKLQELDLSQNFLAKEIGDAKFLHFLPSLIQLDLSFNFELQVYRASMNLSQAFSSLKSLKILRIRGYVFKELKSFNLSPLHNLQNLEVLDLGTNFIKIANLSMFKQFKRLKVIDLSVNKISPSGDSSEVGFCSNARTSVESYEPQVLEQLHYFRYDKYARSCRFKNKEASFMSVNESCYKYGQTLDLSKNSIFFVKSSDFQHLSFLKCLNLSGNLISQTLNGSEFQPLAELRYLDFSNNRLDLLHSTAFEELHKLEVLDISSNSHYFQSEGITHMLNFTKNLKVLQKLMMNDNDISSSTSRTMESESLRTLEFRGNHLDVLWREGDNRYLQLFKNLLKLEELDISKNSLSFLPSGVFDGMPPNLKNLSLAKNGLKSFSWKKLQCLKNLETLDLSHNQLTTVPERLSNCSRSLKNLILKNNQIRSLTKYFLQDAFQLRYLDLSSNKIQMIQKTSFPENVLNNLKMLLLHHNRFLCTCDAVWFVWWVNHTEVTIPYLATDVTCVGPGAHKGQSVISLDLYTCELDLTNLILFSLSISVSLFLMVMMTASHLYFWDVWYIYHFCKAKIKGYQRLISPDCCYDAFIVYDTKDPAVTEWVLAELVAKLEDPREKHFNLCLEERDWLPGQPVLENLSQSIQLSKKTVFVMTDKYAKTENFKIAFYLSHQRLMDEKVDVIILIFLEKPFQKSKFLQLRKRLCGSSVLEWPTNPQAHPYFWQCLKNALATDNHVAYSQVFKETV
Protocol: (§1) Human U205-TLR7 and Human U205-TLR8 cells were grown at 37 degrees in the presence of 5% CO2 and were cultured in Dulbeco's modified Eagle's Medium (DMEM), 1% non essential amino acids, supplemented with fetal bovine serum at 10% and 100 ug/ml streptomycin and 100 u/ml penicillin. Stable expression of TLR7 and TLR8 was maintained by the addition of 300 ug/ml […].
(§2) TLR7 and TLR8 expressing U2OS osteosarcoma cells were seeded in 96-well plate format at a concentration of 2×10^4 cells/well 24 hours prior to transfection. Cells were transfected with the siNAs using DharmaFECT1 lipid transfection reagent using Resiquimod (R848) and the LyoVec-complexed, GU-rich oligonucleotide ssRNA40 respectively as controls (100 μl/well). (DharmaFECT1 was used as the delivery agent for the siNAs as it combines low immunostimulatory effects with high delivery efficiency.) The treatment media were replaced after 6 hours with antibiotic containing DMEM. Cells were harvested 24 hours following transfection. […] An agonist concentration range of 4-10 μg/ml was established since it caused optimal levels of IL8 mRNA expression for the assay.
(§3) TLR7 and TLR8 mediated immunostimulation was measured by the increase in IL8 mRNA levels when the siNAs were formulated with DharmaFect1 (Gibco BRL) and delivered to U2OS cells that were engineered to stably express TLR7 or TLR8. The cells were treated with the TLR7 and TLR8 agonists Resiquimod (R848) and ssRNA40/LyoVec respectively to act as positive controls for IL8 mRNA induction. IL8 mRNA levels were used as a biomarker of TLR7 and TLR8 mediated immunostimulation.

TLR8 = biological target: T2, TLR8 (Homo sapiens, UniProt Q9NR97); format: cell-based
T2 construct: expressed in transfected cells
T2 sequence (Q9NR97 27-1041): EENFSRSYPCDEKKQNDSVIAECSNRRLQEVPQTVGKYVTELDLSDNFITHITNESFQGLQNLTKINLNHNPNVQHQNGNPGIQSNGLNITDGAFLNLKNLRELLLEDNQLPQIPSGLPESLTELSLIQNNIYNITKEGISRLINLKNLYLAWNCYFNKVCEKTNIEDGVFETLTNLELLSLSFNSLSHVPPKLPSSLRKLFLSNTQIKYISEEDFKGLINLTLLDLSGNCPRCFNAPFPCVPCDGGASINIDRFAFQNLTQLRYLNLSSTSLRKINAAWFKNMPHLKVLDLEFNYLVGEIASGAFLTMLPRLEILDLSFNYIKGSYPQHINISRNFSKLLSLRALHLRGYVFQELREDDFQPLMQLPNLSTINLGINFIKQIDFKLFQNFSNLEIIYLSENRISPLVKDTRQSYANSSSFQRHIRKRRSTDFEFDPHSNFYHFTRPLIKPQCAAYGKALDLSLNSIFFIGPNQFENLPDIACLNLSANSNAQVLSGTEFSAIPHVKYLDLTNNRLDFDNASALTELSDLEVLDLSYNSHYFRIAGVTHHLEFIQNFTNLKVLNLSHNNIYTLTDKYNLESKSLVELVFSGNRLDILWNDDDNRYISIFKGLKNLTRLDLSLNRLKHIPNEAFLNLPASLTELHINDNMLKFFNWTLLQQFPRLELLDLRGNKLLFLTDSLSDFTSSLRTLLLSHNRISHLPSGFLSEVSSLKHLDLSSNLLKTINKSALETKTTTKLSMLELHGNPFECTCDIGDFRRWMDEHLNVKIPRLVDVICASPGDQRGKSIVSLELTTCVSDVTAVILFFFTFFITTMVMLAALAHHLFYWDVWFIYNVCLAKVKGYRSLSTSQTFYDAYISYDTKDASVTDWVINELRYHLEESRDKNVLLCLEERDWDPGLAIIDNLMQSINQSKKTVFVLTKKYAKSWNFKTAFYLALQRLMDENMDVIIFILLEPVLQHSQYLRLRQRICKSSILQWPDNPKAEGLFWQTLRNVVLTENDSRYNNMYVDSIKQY
Protocol: as §1, §2, §3

| Substance | Immunostimulation TLR7 mediated in Human U2OS- TLR7 cells IL8 mRNA increase n = 4 individual expts (TLR7) | TLR7 mediated immunostimulatory activity (IL8 mRNA induction) (TLR7) | Immunostimulation TLR8 mediated in Human U2OS-TLR8 cells IL8 mRNA increase n = 4 individual expts (TLR8) | TLR8 mediated immunostimulatory activity (IL8 mRNA induction) (TLR8) |
| --- | --- | --- | --- | --- |
| 29947-DC (sense GGAAUCCUGCUUUCAGUUUTT; antisense AAACUGAAAGCAGGAUUCCUU; inverted abasic caps (B), 2'-modified nucleotides, further chemistry not given here) | No significant effect up to 100 nM | no or very low TLR7 mediated immunostimulatory activity | No significant effect up to 100 nM | no TLR8 mediated immunostimulatory activity |
| 29956-DC (sense GUCUGAGUGUCCGUGGUUATT; antisense UAACCACGGACACUCAGACUU; inverted abasic caps (B), 2'-modified nucleotides, further chemistry not given here) | No significant effect up to 100 nM | – | No significant effect up to 100 nM | – |
| 29957-DC (sense GCAGUUACUUCCACUCAAGTT; antisense CUUGAGUGGAAGUAACUGCUU; inverted abasic end caps, TT overhangs, modified nucleotides, further chemistry not given here) | Upregulation up to 100 nM | – | Upregulation up to 100 nM | – |
| 29961-DC (sense CUACACUGCUAAACUGAUUTT; antisense AAUCAGUUUAGCAGUGUAGUU; inverted abasic end caps, TT overhangs, modified nucleotides, further chemistry not given here) | No significant effect up to 100 nM | no or very low TLR7 mediated immunostimulatory activity | No significant effect up to 100 nM | no TLR8 mediated immunostimulatory activity |
| 29964-DC (sense GAUUUGCAGGUGAUGUUAATT; antisense UUAACAUCACCUGCAAAUCUU; inverted abasic end caps, TT overhangs, modified nucleotides, further chemistry not given here) | No significant effect up to 100 nM | no or very low TLR7 mediated immunostimulatory activity | No significant effect up to 100 nM | no TLR8 mediated immunostimulatory activity |
| 29984-DC (sense GUUAAAGGAUUUGAACCUUTT; antisense AAGGUUCAAAUCCUUUAACUU; inverted abasic end caps, TT overhangs, modified nucleotides, further chemistry not given here) | No significant effect up to 100 nM | no or very low TLR7 mediated immunostimulatory activity | No significant effect up to 100 nM | no TLR8 mediated immunostimulatory activity |
| 29988-DC (sense AUUUGAACCUUUAAUUCAGTT; antisense CUGAAUUAAAGGUUCAAAUUU; inverted abasic end caps, TT overhangs, modified nucleotides, further chemistry not given here) | No significant effect up to 100 nM | no or very low TLR7 mediated immunostimulatory activity | No significant effect up to 100 nM | no TLR8 mediated immunostimulatory activity |
